In patent publication US20090062294A1, “HETEROARYL-SUBSTITUTED UREA MODULATORS OF FATTY ACID AMIDE HYDROLASE” (priority 2007, published 2009):
Where a name gives a salt, the structure may show the parent alone.

Columns and labels:
[1] = target: T1, FAAH (Homo sapiens, UniProt O00519); test: Assay Method 1: FAAH assay, 3H-anandamide hydrolysis in homogenate of T84 cells or SK-N-MC cells transfected with human FAAH; type: biochemical; settings: average of results, > = solubility limit or highest concentration tested
T1 sequence (O00519 1-579): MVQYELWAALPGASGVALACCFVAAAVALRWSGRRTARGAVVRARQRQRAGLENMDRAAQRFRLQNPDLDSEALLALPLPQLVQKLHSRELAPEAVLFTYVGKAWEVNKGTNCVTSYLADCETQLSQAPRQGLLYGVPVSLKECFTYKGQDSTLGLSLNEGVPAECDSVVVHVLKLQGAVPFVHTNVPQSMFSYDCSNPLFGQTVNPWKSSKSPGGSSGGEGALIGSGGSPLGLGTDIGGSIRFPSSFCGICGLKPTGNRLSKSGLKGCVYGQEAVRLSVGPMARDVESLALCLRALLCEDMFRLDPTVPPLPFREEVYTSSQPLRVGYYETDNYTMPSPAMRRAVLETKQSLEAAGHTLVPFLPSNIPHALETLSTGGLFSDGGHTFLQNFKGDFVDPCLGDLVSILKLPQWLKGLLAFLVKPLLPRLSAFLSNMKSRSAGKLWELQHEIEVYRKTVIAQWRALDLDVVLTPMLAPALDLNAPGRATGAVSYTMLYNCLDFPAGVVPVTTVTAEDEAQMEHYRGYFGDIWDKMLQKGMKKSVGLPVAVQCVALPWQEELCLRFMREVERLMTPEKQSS
Summary of the method: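 Homogenates of T84 cells or of SK-N-MC cells stably transfected with human FAAH (G418-selected) were prepared in pH 9 Tris/EDTA/glycerol/Triton buffer. They were incubated with compound and 80 nM final ^3H-anandamide for 1 h at rt. Released ^3H-ethanolamine was separated on activated charcoal and counted by scintillation.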

[2] = target: T2, rat FAAH (Rattus norvegicus, UniProt P97612); test: Assay Method 2: FAAH assay, 3H-anandamide hydrolysis in homogenate of SK-N-MC cells transfected with rat FAAH; type: biochemical; settings: average of results, > = solubility limit or highest concentration tested
T2 sequence (P97612 1-579): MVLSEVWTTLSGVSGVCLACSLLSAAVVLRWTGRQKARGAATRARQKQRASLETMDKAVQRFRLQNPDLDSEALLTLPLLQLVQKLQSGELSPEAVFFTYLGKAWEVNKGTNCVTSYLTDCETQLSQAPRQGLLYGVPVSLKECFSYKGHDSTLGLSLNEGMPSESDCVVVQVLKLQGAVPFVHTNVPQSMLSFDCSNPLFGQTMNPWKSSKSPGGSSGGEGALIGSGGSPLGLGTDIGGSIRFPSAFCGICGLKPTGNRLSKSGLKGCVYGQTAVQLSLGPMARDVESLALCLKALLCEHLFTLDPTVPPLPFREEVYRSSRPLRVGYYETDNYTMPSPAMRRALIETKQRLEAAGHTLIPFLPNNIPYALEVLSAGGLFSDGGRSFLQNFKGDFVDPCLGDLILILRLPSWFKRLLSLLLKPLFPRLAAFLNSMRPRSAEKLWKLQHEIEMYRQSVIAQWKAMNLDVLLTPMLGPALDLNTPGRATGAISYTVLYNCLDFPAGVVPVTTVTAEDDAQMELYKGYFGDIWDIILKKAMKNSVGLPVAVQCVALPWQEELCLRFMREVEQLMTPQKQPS
Summary of the method: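 Homogenate of SK-N-MC cells stably transfected with rat FAAH cDNA (G418-selected clones) in pH 9 Tris/EDTA/glycerol/Triton buffer. Incubated with compound and 80 nM final [3H]-anandamide for 1 h at rt. Released [3H]-ethanolamine separated from substrate on activated charcoal filters and counted by scintillation.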

Structure (SMILES) | IC50 [1] | IC50 [2]
O=C(Nc1noc2ccccc12)N1CCN(Cc2cccc(Oc3ccc(OCC(F)(F)F)cc3)c2)CC1 [Example 35, 4-{3-[4-(2,2,2-Trifluoro-ethoxy)-phenoxy]-benzyl}-piperazine-1-carboxylic acid benzo[d]isoxazol-3-ylamide] | 5 nM | 20 nM
O=C(Nc1cccc2nsnc12)N1CCN(Cc2cccc(Oc3ccc(Cl)c(Cl)c3)c2)CC1 [Example 38, 4-[3-(3,4-Dichloro-phenoxy)-benzyl]-piperazine-1-carboxylic acid benzo[1,2,5]thiadiazol-4-ylamide trifluoroacetic acid salt] | 70 nM | 9 nM
O=C(Nc1cccc2nsnc12)N1CCN(Cc2cccc(Oc3cc(Cl)cc(Cl)c3)c2)CC1 [Example 39, 4-[3-(3,5-Dichloro-phenoxy)-benzyl]-piperazine-1-carboxylic acid benzo[1,2,5]thiadiazol-4-ylamide trifluoroacetic acid salt] | 310 nM | 573 nM
O=C(Nc1cccc2nsnc12)N1CCN(Cc2cccc(Oc3cccc(C(F)(F)F)c3)c2)CC1 [Example 40, 4-[3-(3-Trifluoromethyl-phenoxy)-benzyl]-piperazine-1-carboxylic acid benzo[1,2,5]thiadiazol-4-ylamide trifluoroacetic acid salt] | 156 nM | 15 nM
O=C(Nc1cccc2nsnc12)N1CCN(Cc2cccc(OC(F)(F)F)c2)CC1 [Example 41, 4-(3-Trifluoromethoxy-benzyl)-piperazine-1-carboxylic acid benzo[1,2,5]thiadiazol-4-ylamide trifluoroacetic acid salt] | 48 nM | 141 nM
O=C(Nc1ccc(Cl)nn1)N1CCN(Cc2cccc(Oc3ccc(Cl)cc3)c2)CC1 [Example 42, 4-[3-(4-Chloro-phenoxy)-benzyl]-piperazine-1-carboxylic acid (6-chloro-pyridazin-3-yl)-amide trifluoroacetic acid salt] | 311 nM | 18 nM
O=C(Nc1ccc(Cl)nn1)N1CCN(Cc2cccc(Oc3ccc(Cl)c(Cl)c3)c2)CC1 [Example 43, 4-[3-(3,4-Dichloro-phenoxy)-benzyl]-piperazine-1-carboxylic acid (6-chloro-pyridazin-3-yl)-amide trifluoroacetic acid salt] | 983 nM | 6 nM
O=C(Nc1ccc(Cl)nn1)N1CCN(Cc2cccc(Oc3cccc(C(F)(F)F)c3)c2)CC1 [Example 44, 4-[3-(3-Trifluoromethyl-phenoxy)-benzyl]-piperazine-1-carboxylic acid (6-chloro-pyridazin-3-yl)-amide trifluoroacetic acid salt] | 643 nM | 46 nM
O=C(Nc1ccc(Cl)nn1)N1CCN(Cc2ccc(F)c(Oc3ccccc3)c2)CC1 [Example 45, 4-(4-Fluoro-3-phenoxy-benzyl)-piperazine-1-carboxylic acid (6-chloro-pyridazin-3-yl)-amide trifluoroacetic acid salt] | 1500 nM | 410 nM
O=C(Nc1ccon1)N1CCN(Cc2cccc(Oc3ccc(Cl)c(Cl)c3)c2)CC1 [Example 47, 4-[3-(3,4-Dichloro-phenoxy)-benzyl]-piperazine-1-carboxylic acid isoxazol-3-ylamide trifluoroacetic acid salt] | 1140 nM | 66 nM
O=C(Nc1ccon1)N1CCN(Cc2cccc(Oc3cccc(C(F)(F)F)c3)c2)CC1 [Example 48, 4-[3-(3-Trifluoromethyl-phenoxy)-benzyl]-piperazine-1-carboxylic acid isoxazol-3-ylamide trifluoroacetic acid salt] | 627 nM | 49 nM
O=C(Nc1ccon1)N1CCN(Cc2ccc(F)c(Oc3ccccc3)c2)CC1 [Example 49, 4-(4-Fluoro-3-phenoxy-benzyl)-piperazine-1-carboxylic acid isoxazol-3-ylamide trifluoroacetic acid salt] | 2000 nM | 360 nM
O=C(Nc1noc2ccccc12)N1CCN(Cc2cccc(Oc3ccc(Cl)c(Cl)c3)c2)CC1 [Example 50, 4-[3-(3,4-Dichloro-phenoxy)-benzyl]-piperazine-1-carboxylic acid benzo[d]isoxazol-3-ylamide trifluoroacetic acid salt] | 42 nM | 18 nM
O=C(Nc1noc2ccccc12)N1CCN(Cc2cccc(Oc3cccc(C(F)(F)F)c3)c2)CC1 [Example 51, 4-[3-(3-Trifluoromethyl-phenoxy)-benzyl]-piperazine-1-carboxylic acid benzo[d]isoxazol-3-ylamide trifluoroacetic acid salt] | 28 nM | 29 nM
O=C(Nc1noc2ccccc12)N1CCN(Cc2cccc(OC(F)(F)F)c2)CC1 [Example 52, 4-(3-Trifluoromethoxy-benzyl)-piperazine-1-carboxylic acid benzo[d]isoxazol-3-ylamide trifluoroacetic acid salt] | 74 nM | 322 nM
O=C(Nc1cc[nH]n1)N1CCN(Cc2cccc(Oc3ccc(Cl)c(Cl)c3)c2)CC1 [Example 54, 4-[3-(3,4-Dichloro-phenoxy)-benzyl]-piperazine-1-carboxylic acid (1H-pyrazol-3-yl)-amide trifluoroacetic acid salt] | 370 nM | 50 nM

Results, then the compound that gave them:

IC50 [1] | IC50 [2] | Structure (SMILES)
7750 nM | 764 nM | O=C(Nc1cc[nH]n1)N1CCN(Cc2cccc(Oc3cccc(C(F)(F)F)c3)c2)CC1 [Example 55, 4-[3-(3-Trifluoromethyl-phenoxy)-benzyl]-piperazine-1-carboxylic acid (1H-pyrazol-3-yl)-amide trifluoroacetic acid salt]
1500 nM | 550 nM | O=C(Nc1cc[nH]n1)N1CCN(Cc2ccc(F)c(Oc3ccccc3)c2)CC1 [Example 56, 4-(4-Fluoro-3-phenoxy-benzyl)-piperazine-1-carboxylic acid (1H-pyrazol-3-yl)-amide trifluoroacetic acid salt]
270 nM | 22 nM | O=C(Nc1cnccn1)N1CCN(Cc2cccc(Oc3ccc(Cl)c(Cl)c3)c2)CC1 [Example 59, 4-[3-(3,4-Dichloro-phenoxy)-benzyl]-piperazine-1-carboxylic acid pyrazin-2-ylamide trifluoroacetic acid salt]
166 nM | 16 nM | O=C(Nc1cnccn1)N1CCN(Cc2cccc(Oc3cccc(C(F)(F)F)c3)c2)CC1 [Example 60, 4-[3-(3-Trifluoromethyl-phenoxy)-benzyl]-piperazine-1-carboxylic acid pyrazin-2-ylamide trifluoroacetic acid salt]
2300 nM | 7000 nM | O=C(Nc1cnccn1)N1CCN(Cc2cccc(OC(F)(F)F)c2)CC1 [Example 61, 4-(3-Trifluoromethoxy-benzyl)-piperazine-1-carboxylic acid pyrazin-2-ylamide trifluoroacetic acid salt]
41 nM | 35 nM | O=C(Nc1noc2ccccc12)N1CCC(Cc2ccc3c(c2)OC(F)(F)O3)CC1 [Example 62, N-1,2-Benzisoxazol-3-yl-4-[(2,2-difluoro-1,3-benzodioxol-5-yl)methyl]piperidine-1-carboxamide]
70 nM | 77 nM | Cc1ccccc1C#Cc1cccc(CN2CCN(C(=O)Nc3noc4ccccc34)CC2)c1 [Example 63, 4-(3-o-Tolylethynyl-benzyl)-piperazine-1-carboxylic acid benzo[d]isoxazol-3-ylamide]
105 nM | 80 nM | O=C(Nc1noc2ccccc12)N1CCN(Cc2cccc(C#Cc3ccccc3C(F)(F)F)c2)CC1 [Example 64, N-1,2-Benzisoxazol-3-yl-4-(3-{[2-(trifluoromethyl)-phenyl]-ethynyl}benzyl)-piperazine-1-carboxamide]
395 nM | 300 nM | COc1ccccc1C#Cc1cccc(CN2CCN(C(=O)Nc3noc4ccccc34)CC2)c1 [Example 65, N-1,2-Benzisoxazol-3-yl-4-{3-[(2-methoxyphenyl)-ethynyl]-benzyl}-piperazine-1-carboxamide]
